Reference: the NIST ThermoML archive (doi:10.1016/j.fluid.2014.11.020)
± gives the expanded uncertainty stated by the source.

Assay: activity coefficient (dimensionless); of the first substance listed, at infinite dilution; xn = mol fraction of the nth substance listed
Conditions: Liquid, Chromatography, x1 = 0

Compound: c1ccsc1 [thiophene] + CCCCCCCCn1cc[n+](COCCCOC[n+]2ccn(CCCCCCCC)c2C)c1C.O=S(=O)([N-]S(=O)(=O)C(F)(F)F)C(F)(F)F.O=S(=O)([N-]S(=O)(=O)C(F)(F)F)C(F)(F)F
- activity coefficient (323.15 K): 0.38 ± 0.03
- activity coefficient (333.15 K): 0.37 ± 0.03
- activity coefficient (343.15 K): 0.38 ± 0.03

Compound: C#CCCCCC [1-heptyne] + CCCOC[n+]1ccn(Cc2ccccc2)c1.F[B-](F)(F)F
- activity coefficient (323.15 K): 8.53 ± 0.58
- activity coefficient (333.15 K): 8.35 ± 0.57
- activity coefficient (343.15 K): 8.28 ± 0.56

Compound: CCCCO [butan-1-ol] + CCCOC[n+]1ccn(Cc2ccccc2)c1.F[B-](F)(F)F
- activity coefficient (323.15 K): 3 ± 0.2
- activity coefficient (333.15 K): 2.59 ± 0.18
- activity coefficient (343.15 K): 2.39 ± 0.16

Compound: CC1CCCCC1 [methylcyclohexane] + CCCOC[n+]1ccn(C)c1.F[B-](F)(F)F
- activity coefficient (323.15 K): 76 ± 5.2
- activity coefficient (333.15 K): 70.4 ± 4.8
- activity coefficient (343.15 K): 59.7 ± 4.1

Compound: CCC(C)=O [butanone] + CCCOC[n+]1ccn(Cc2ccccc2)c1.N#C[N-]C#N
- activity coefficient (323.15 K): 0.9 ± 0.06
- activity coefficient (333.15 K): 0.87 ± 0.06
- activity coefficient (343.15 K): 0.81 ± 0.05

Compound: CCOCC [diethyl ether] + CCCCCCCCn1cc[n+](COCCCOC[n+]2ccn(CCCCCCCC)c2C)c1C.O=S(=O)([N-]S(=O)(=O)C(F)(F)F)C(F)(F)F.O=S(=O)([N-]S(=O)(=O)C(F)(F)F)C(F)(F)F
- activity coefficient (323.15 K): 0.86 ± 0.06
- activity coefficient (333.15 K): 0.88 ± 0.06
- activity coefficient (343.15 K): 0.92 ± 0.06

Compound: CCCCCCCCCC [decane] + CN(C)c1cc[n+](COCCCOC[n+]2ccc(N(C)C)cc2)cc1.O=S(=O)([N-]S(=O)(=O)C(F)(F)F)C(F)(F)F.O=S(=O)([N-]S(=O)(=O)C(F)(F)F)C(F)(F)F
- activity coefficient (323.15 K): 79.5 ± 5.5
- activity coefficient (333.15 K): 71 ± 4.9
- activity coefficient (343.15 K): 63 ± 4.3

Compound: Cc1ccccc1 [toluene] + CCCOC[n+]1ccn(Cc2ccccc2)c1.O=S(=O)([N-]S(=O)(=O)C(F)(F)F)C(F)(F)F
- activity coefficient (323.15 K): 1.09 ± 0.07
- activity coefficient (333.15 K): 0.97 ± 0.06
- activity coefficient (343.15 K): 0.96 ± 0.06

Compound: CO [methanol] + CCCOC[n+]1ccn(C)c1.N#C[N-]C#N
- activity coefficient (323.15 K): 0.44 ± 0.04
- activity coefficient (333.15 K): 0.44 ± 0.04
- activity coefficient (343.15 K): 0.45 ± 0.04

Compound: C[N+](=O)[O-] [nitromethane] + CCCCCCCCn1cc[n+](COCCC)c1C.N#C[N-]C#N
- activity coefficient (323.15 K): 0.68 ± 0.05
- activity coefficient (333.15 K): 0.66 ± 0.05
- activity coefficient (343.15 K): 0.63 ± 0.04

Compound: CCO [ethanol] + CCCOC[n+]1ccn(C)c1.F[B-](F)(F)F
- activity coefficient (323.15 K): 2.1 ± 0.14
- activity coefficient (333.15 K): 1.9 ± 0.13
- activity coefficient (343.15 K): 1.75 ± 0.12

Compound: CCCCCCCC [octane] + CCCOC[n+]1ccn(C)c1.O=S(=O)([N-]S(=O)(=O)C(F)(F)F)C(F)(F)F
- activity coefficient (323.15 K): 34.1 ± 2.3
- activity coefficient (333.15 K): 29.7 ± 2
- activity coefficient (343.15 K): 26.4 ± 1.8

Compound: CO [methanol] + Cn1cc[n+](COCCCOC[n+]2ccn(C)c2)c1.N#C[N-]C#N.N#C[N-]C#N
- activity coefficient (323.15 K): 0.38 ± 0.03
- activity coefficient (333.15 K): 0.38 ± 0.03
- activity coefficient (343.15 K): 0.37 ± 0.03

Compound: CCC(=O)CC [pentan-3-one] + CCCCCCCCn1cc[n+](COCCCOC[n+]2ccn(CCCCCCCC)c2C)c1C.N#C[N-]C#N.N#C[N-]C#N
- activity coefficient (323.15 K): 0.75 ± 0.05
- activity coefficient (333.15 K): 0.76 ± 0.05
- activity coefficient (343.15 K): 0.78 ± 0.05

Compound: c1ccncc1 [pyridine] + Cn1cc[n+](COCCCOC[n+]2ccn(C)c2)c1.N#C[N-]C#N.N#C[N-]C#N
- activity coefficient (323.15 K): 1 ± 0.06
- activity coefficient (333.15 K): 1.01 ± 0.06
- activity coefficient (343.15 K): 1.04 ± 0.07

Compound: CCCCCCCCC [nonane] + CCCCCCCCn1cc[n+](COCCCOC[n+]2ccn(CCCCCCCC)c2C)c1C.N#C[N-]C#N.N#C[N-]C#N
- activity coefficient (323.15 K): 17.1 ± 1.2
- activity coefficient (333.15 K): 15.8 ± 1.1
- activity coefficient (343.15 K): 14.3 ± 0.98

Compound: CCCCCCC [heptane] + CCCOC[n+]1ccn(C)c1.O=S(=O)([N-]S(=O)(=O)C(F)(F)F)C(F)(F)F
- activity coefficient (323.15 K): 22.9 ± 1.6
- activity coefficient (333.15 K): 20.4 ± 1.4
- activity coefficient (343.15 K): 17.1 ± 1.2

Compound: CCCCCCCCCCCC [dodecane] + CCCOC[n+]1ccn(Cc2ccccc2)c1.F[B-](F)(F)F
- activity coefficient (323.15 K): 483 ± 33
- activity coefficient (333.15 K): 421 ± 29
- activity coefficient (343.15 K): 370 ± 25
